# Measurements reported in patent US6433165B1, “Chemokine receptor antagonists and methods of use therefor” (Millennium Pharmaceuticals, Inc., priority 1998, dated 2002).
# Molecular target: T1, RANTES / MIP-1α binding to THP-1 cell membranes (Homo sapiens, UniProt P32246)
# T1 sequence (P32246 1-355): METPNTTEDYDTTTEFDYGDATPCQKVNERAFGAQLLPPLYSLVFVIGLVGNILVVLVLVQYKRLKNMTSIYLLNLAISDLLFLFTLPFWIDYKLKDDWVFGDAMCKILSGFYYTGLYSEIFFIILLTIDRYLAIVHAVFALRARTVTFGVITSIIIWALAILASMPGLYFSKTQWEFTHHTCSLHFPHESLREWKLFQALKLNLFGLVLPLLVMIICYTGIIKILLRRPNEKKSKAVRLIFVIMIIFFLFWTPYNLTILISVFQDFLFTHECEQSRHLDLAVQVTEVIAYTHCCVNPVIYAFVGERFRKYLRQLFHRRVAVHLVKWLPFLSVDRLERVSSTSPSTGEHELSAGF
# Test: Receptor binding assay, 125I-RANTES or 125I-MIP-1α binding to THP-1 cell membranes
# Conditions: not given
# Method: Membranes were prepared from THP-1 cells (ATCC #TIB202). Cells were harvested by centrifugation, washed twice with PBS (phosphate-buffered saline), and the cell pellets were frozen at −70 to −85° C. […] This procedure results in cell lysis. The suspension was mixed well to resuspend all of the frozen cell pellet. Nuclei and cell debris were removed by centrifugation of 400×g for 10 minutes at 4° C. The supernatant was transferred to a fresh tube and the membrane fragments were collected by centrifugation at 25,000×g for 30 minutes at 4° C. The supernatant was aspirated and the pellet was resuspended in freezing buffer consisting of 10 mM HEPES pH 7.5, 300 mM sucrose, 1 μg/ml each aprotinin, leupeptin, and chymostatin, and 10 μg/ml PMSF (approximately 0.1 ml per each 10^8 cells). All clumps were resolved using a minihomogenizer, and the total protein concentration was determined using a protein assay kit (Bio-Rad, Hercules, Calif., cat #500-0002). The membrane solution was then aliquoted and frozen at −70 to −85° C. until needed. Binding Assays utilized the membranes described above. […] The binding reactions were terminated by harvesting the membranes by rapid filtration through glass fiber filters (GF/B or GF/C, Packard) which were presoaked in 0.3% polyethyleneimine. The filters were rinsed with approximately 600 μl of binding buffer containing 0.5 M NaCl, dried, and the amount of bound radioactivity was determined by scintillation counting in a Topcount beta-plate counter.
row,SMILES,IC50 [µM]
1,"N#CC1(CCCN2CCC(O)(c3ccc(Cl)cc3)CC2)c2ccccc2C[S+]([O-])c2ccccc21 (single isomer, unassigned) [Example 14, 4-(4-Chlorophenyl)-1-[3-(11-cyano-6,11-dihydro-5-oxodibenzo[b,e]thiepin-11-yl)propyl]piperidin-4-ol]",< 1
2,"N#CC1(CCCN2CCC(O)(c3ccc(Cl)cc3)CC2)c2ccccc2CCc2ccccc21 [Example 2, 4-(4-Chlorophenyl)-1-[3-(5-cyano-10,11-dihydro-5H-dibenzo[a,d]cycloheptene-5-yl)propyl]piperidin-4-ol]",< 1
3,"N#CC1(CCCN2CCC(O)(c3ccc(Cl)cc3)CC2)c2ccccc2CSc2ccccc21 (centres unmarked) [Example 10, 4-(4-Chlorophenyl)-1-[3-(11-cyano-6,11-dihydrodibenzo[b,e]thiepin-11-yl)propyl]piperidin-4-ol]",< 1
4,"O=C(NCC1(CCCN2CCC(O)(c3ccc(Cl)cc3)CC2)c2ccccc2CSc2ccccc21)Oc1ccccc1 (centres unmarked) [Example 22, Phenyl N-[11-[3-(4-(4-chlorophenyl)-4-hydroxypiperidino)propyl]-6,11-dihydrodibenzo[b,e]thiepin-11-yl)methyl Carbamate]",< 1
5,"O=C(CCN1CCC(O)(c2ccc(Cl)cc2)CC1)C1c2ccccc2CCc2ccccc21 [Example 24, 4-(4-Chlorophenyl)-1-[3-(10,11-dihydro-5H-dibenzo[a,d]cycloheptene-5-yl)-3-propioyl]piperidin-4-ol]",< 1

# Same assay, conditions: 125I-RANTES or 125I-MIP-1α as ligand; THP-1 cell membranes; 60 min at room temperature; read-out: IC50 (inhibitor concentration required for 50% inhibition of specific binding)
row,SMILES,IC50 [µM]
1,"N#CC1(CCCN2CCC(O)(c3ccc(Cl)cc3)CC2)c2ccccc2C=Cc2ccccc21 [Example 1, 4-(4-Chlorophenyl)1-[3-(5-cyano-5H-dibenzo[a,d]cycloheptene-5-yl)propyl]piperidin-4-ol]",< 1
2,"N#CC1(CCCN2CCC(O)(c3ccc(Cl)cc3)CC2)c2ccccc2COc2ccccc21 (centres unmarked) [Example 3, 4-(4-Chlorophenyl)-1-[3-(11-cyano-6,11-dihydrodibenz[b,e]oxepin-11-yl)propyl]piperidin-4-ol]",< 1
3,"N#CC1(CCCN2CCC(O)(c3ccc(F)cc3)CC2)c2ccccc2COc2ccccc21 (centres unmarked) [Example 4, 1-[3-(11-Cyano-6,11-dihydrodibenz[b,e]oxepin-11-yl)propyl]-4-(4-fluorophenyl)piperidin-4-ol]",< 1
4,"N#CC1(CCCN2CCC(O)(c3ccc(Cl)cc3)CC2)c2ccccc2COc2ccc(F)cc21 (centres unmarked) [Example 5, 4-(4-Chlorophenyl)-1-[3-(11-cyano-6,11-dihydro-2-fluorodibenz[b,e]oxepin-11-yl)propyl]piperidin-4-ol]",< 1
5,"N#CC1(CCCN2CCC(O)(c3ccc(Cl)cc3)CC2)c2ccccc2COc2ccc(Br)cc21 (centres unmarked) [Example 6, 1-[3-(2-Bromo-11-cyano-6,11-dihydrodibenz[b,e]oxepin-11-yl)propyl]-4-(4-chlorophenyl)piperidin-4-ol]",< 1
6,"Cc1ccc2c(c1)C(C#N)(CCCN1CCC(O)(c3ccc(Cl)cc3)CC1)c1ccccc1CO2 (centres unmarked) [Example 7, 4-(4-Chlorophenyl)-1-[3-(11-cyano-6,11-dihydro-2-methyldibenz[b,e]oxepin-11-yl)propyl]piperidin-4-ol]",< 1
7,"N#CC1(CCCN2CCC(O)(c3ccccc3)CC2)c2ccccc2CSc2ccccc21 (centres unmarked) [Example 11, 1-[3-(11-Cyano-6,11-dihydrodibenzo[b,e]thiepin-11-yl)propyl]-4-phenylpiperidin-4-ol]",< 100
8,"N#CC1(CCCN2CCC(O)(c3ccc(Br)cc3)CC2)c2ccccc2CSc2ccccc21 (centres unmarked) [Example 12, 4-(4-Bromophenyl)-1-[3-(11-cyano-6,11-dihydrodibenzo[b,e]thiepin-11-yl)propyl]piperidin-4-ol]",< 1
9,"N#CC1(CCCN2CCC(O)(c3ccc(Cl)cc3)CC2)c2ccccc2CSc2ccc(Br)cc21 (centres unmarked) [Example 13, 1-[3-(2-Bromo-11-cyano-6,11-dihydrodibenzo[b,e]thiepin-11-yl)propyl]-4-(4-chlorophenyl)piperidin-4-ol]",< 1
10,"N#CC1(CCCN2CCC(O)(c3ccc(Cl)cc3)CC2)c2ccccc2CS(=O)(=O)c2ccccc21 (centres unmarked) [Example 16, 4-(4-Chlorophenyl)-1-[3-(11-cyano-6,11-dihydro-5,5-dioxodibenzo[b,e]thiepin-11-yl)propyl]piperidin-4-ol]",< 1
11,"OC1(c2ccc(Cl)cc2)CCN(CCCC2c3ccccc3CSc3ccccc32)CC1 (centres unmarked) [Example 17, 4-(4-Chlorophenyl)-1-[3-(6,11-dihydrodibenzo[b,e]thiepin-11-yl)propyl]piperidin-4-ol]",< 1
12,"OC1(c2ccc(Cl)cc2)CCN(CCCC2c3ccccc3CCc3ccccc32)CC1 [Example 18, 4-(4-Chlorophenyl)-1-[3-(10,11-dihydro-5H-dibenzo[a,d]cycloheptene-5-yl)propyl]piperidin-4-ol]",< 1
13,"OC1(c2ccc(Cl)cc2)CCN(CCCC2c3ccccc3COc3ccccc32)CC1 (centres unmarked) [Example 19, 4-(4-Chlorophenyl)-1-[3-(6,11-dihydrodibenz[b,e]oxepin-11-yl)propyl]piperidin-4-ol]",< 1
14,"O=C(NCCCO)NCC1(CCCN2CCC(O)(c3ccc(Cl)cc3)CC2)c2ccccc2CSc2ccccc21 (centres unmarked) [Example 23, 1-[11-[3-(4-(4-chlorophenyl)-4-hydroxypiperidino)propyl]-6,11-dihydrodibenzo[b,e]thiepin-11-yl]methyl-8-(3-hydroxypropyl)urea]",< 10

# Same assay, conditions: read-out: IC50 (inhibitor concentration required for 50% inhibition of specific binding); 125I-RANTES or 125I-MIP-1α as ligand; THP-1 cell membranes; 60 min at room temperature
row,SMILES,IC50 [µM]
1,"N#CC1(CCCN2CCC(O)(c3ccc(Cl)cc3)CC2)c2ccccc2C[S+]([O-])c2ccccc21 (single isomer, unassigned) [Example 15, 4-(4-Chlorophenyl)-1-[3-(11-cyano-6,11-dihydro-5-oxodibenzo[b,e]thiepin-11-yl)propyl]piperidin-4-ol]",< 1
